# Measured values: publication PMC9229294, “Pyridazinones and Structurally Related Derivatives with Anti-Inflammatory Activity” (Molecules, 2022)
# Like-named read-outs stand apart in the source and are kept apart here.
# Columns and labels:
# [1] = Cytotoxicity, CellTiter-Glo, THP1-Blue cells; assay type: cell-based, human; conditions: human, THP1-Blue cells; N.T. = no cytotoxicity at 50 µM; read-out: Cytotoxicity IC50 in THP1-Blue Cells
# Protocol: (§1) Our studies included 175 compounds that were previously synthesized and characterized at NEUROFARBA, Pharmaceutical and Nutraceutical Section, University of Florence, Italy. We previously evaluated the FPR1/FPR2 agonist activity of these compounds by evaluating their ability to induce Ca^2+ mobilization in FPR-transfected HL60 cells and human neutrophils. […] All test compounds were dissolved in DMSO at stock concentrations of 10 mM and stored at −20 °C. For primary screening assays (analysis of NF-κB activation, IL-6 production, and cytotoxicity), the following final concentrations of the compounds were used: 3.125, 6.25, 12.5, 25, and 50 µM; the final concentration of DMSO was 1% in all samples.
# (§2) The cytotoxicity was analyzed with a CellTiter-Glo Luminescent Cell Viability Assay Kit from Promega (Madison, WI, USA), according to the manufacturer’s protocol. The luminescent ATP assays are based on a luciferase enzymatic reaction which uses ATP from viable cells to generate photons. For this assay, the cells were incubated with the compounds under investigation for 24 h. After treatment, the cells were equilibrated to room temperature for 30 min, luciferase + luciferin substrate was added, and the samples were analyzed with a Fluoroscan Ascent FL (Thermo Fisher Scientific, Waltham, MA, USA). The IC50 values were calculated by plotting the percentage inhibition against the logarithm of the inhibitor concentration (at least five points).
# [2] = system: LPS-induced NF-κB activity in THP1-Blue cells; experiment: Inhibition of LPS-induced NF-κB transcriptional activity, alkaline phosphatase reporter, THP1-Blue cells; assay type: cell-based, human; conditions: for IC50: Homo sapiens, LPS-induced NF-κB activity, human THP1-Blue cells, N.A. = no activity at 50 µM; for Observed class for inhibition of NF-κB activity: experimentally observed, Active or N.A.; for Inhibition of LPS-induced NF-κB activity (in words): THP1-Blue cells, 250 ng/mL LPS, 24 h
# Protocol: as §1
# The activation of NF-κB was measured using an alkaline phosphatase reporter assay in human monocytic THP1-Blue cells stably transfected with a secreted embryonic alkaline phosphatase gene that is under the control of a promoter inducible by the NF-κB. The THP1-Blue cells (2 × 10^5 cells/well) were pretreated with the test compound or DMSO for 30 min, followed by an addition of 250 ng/mL LPS for 24 h. Alkaline phosphatase activity was determined in cell supernatants using a QUANTI-Blue mix (InvivoGen) and measured at 655 nm and compared with positive control samples (LPS).
# [3] = system: LPS-induced IL-6 production in MonoMac-6 cells; experiment: Inhibition of LPS-induced IL-6 production in MonoMac-6 cells (ELISA); assay type: cell-based, human; conditions: for IC50: Homo sapiens; for Inhibition of LPS-induced IL-6 production (in words): MonoMac-6 cells, 250 ng/mL LPS, 24 h
# Protocol: as §1
# A human IL-6 ELISA kit (BD Biosciences, San Jose, CA, USA) was used to measure IL-6 production. […] The cells were pretreated with the test compound or DMSO for 30 min, followed by addition of 250 ng/mL LPS for 24 h. The IC50 values for IL-6 production were calculated by plotting the percentage inhibition against the logarithm of the inhibitor concentration (at least five points).
# [4] = Cytotoxicity, CellTiter-Glo, MonoMac-6 cells; assay type: cell-based, human; conditions: human, MonoMac-6 cells
# Protocol: as §1, §2
# [5] = biological target: T1, FPR2 (Homo sapiens, UniProt P25090); conditions: FPR2-transfected HL-60 cells, read-out: Ca2+ Mobilization FPR2 EC50 in HL-60 Cells, cited from earlier work
# T1 construct: expressed in transfected cells; host or cells: HL-60 cells (FPR2-HL60)
# T1 sequence (P25090 1-351): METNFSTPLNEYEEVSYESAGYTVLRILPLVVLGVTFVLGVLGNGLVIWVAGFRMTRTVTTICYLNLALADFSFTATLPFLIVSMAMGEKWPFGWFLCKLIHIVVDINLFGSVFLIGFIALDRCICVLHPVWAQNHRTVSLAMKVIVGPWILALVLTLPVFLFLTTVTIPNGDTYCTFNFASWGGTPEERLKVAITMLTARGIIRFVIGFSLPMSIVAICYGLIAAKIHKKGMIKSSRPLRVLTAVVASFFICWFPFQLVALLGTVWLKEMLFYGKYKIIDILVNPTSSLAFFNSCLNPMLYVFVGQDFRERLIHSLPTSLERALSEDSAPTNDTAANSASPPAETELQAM
# [6] = biological target: T2, FPR1 (Homo sapiens, UniProt P21462); conditions: FPR1-transfected HL-60 cells, read-out: Ca2+ Mobilization FPR1 EC50 in HL-60 Cells, cited from earlier work
# T2 construct: expressed in transfected cells; host or cells: HL-60 cells (FPR1-HL60)
# T2 sequence (P21462 1-350): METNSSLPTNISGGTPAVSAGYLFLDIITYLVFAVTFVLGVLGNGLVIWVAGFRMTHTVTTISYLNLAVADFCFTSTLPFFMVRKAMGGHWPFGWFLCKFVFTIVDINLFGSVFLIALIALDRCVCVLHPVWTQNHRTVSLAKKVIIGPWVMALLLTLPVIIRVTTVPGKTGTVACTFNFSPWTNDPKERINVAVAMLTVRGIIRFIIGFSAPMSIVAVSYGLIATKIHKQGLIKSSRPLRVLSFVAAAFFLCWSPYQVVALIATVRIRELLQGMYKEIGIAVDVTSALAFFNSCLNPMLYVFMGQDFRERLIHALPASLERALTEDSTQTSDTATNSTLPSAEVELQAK
# [7] = MONO-MAC-6, read-out: Inhibition of IL-6 Production IC50 in MonoMac-6 Cells
# [8] = Table 3, as reported previously (see Table 1)
# [9] = MONO-MAC-6, 24 h, read-out: IC50, LPS-induced IL-6 production
IC50 [2],"IC50 [3, 7]","IC50 [3, 9]",Structure (SMILES),IC50 at 24 h [1],IC50 at 24 h [4],EC50 ([5]; agonist activity from Table 1),"EC50 [5, 8]",EC50 ([6]; agonist activity from Table 1),"EC50 [6, 8]",Observed class for inhibition of NF-κB activity [2],Inhibition of LPS-induced NF-κB activity (in words) [2],Inhibition of LPS-induced IL-6 production (in words) [3]
12.1 ± 2.4 µM,9.8 ± 1 µM,,CC[C@@H](C(=O)Nc1ccc(Br)cc1)n1nc(C)cc(Cc2cccc(OC)c2)c1=O [Compound 95],> 50 µM,> 50 µM,22.2 µM,22.2 µM,13.4 µM,13.4 µM,,,
21.4 ± 3.5 µM,4 ± 1.2 µM,< 10 µM,COc1cccc(-n2ccc(=O)n(CC(=O)Nc3ccc(Br)cc3)c2=O)c1 [Compound 150],> 50 µM,> 50 µM,3.6 µM,,,4.3 µM,Active,,
22.1 ± 1.6 µM,19 ± 3.1 µM,,CC[C@](C)(C(=O)Nc1ccc(Br)cc1)n1nc(C)cc(Cc2cccc(OC)c2)c1=O [Compound 102],> 50 µM,> 50 µM,13.7 µM,13.7 µM,4.5 µM,4.5 µM,,,
25.6 ± 2.3 µM,2.6 ± 0.3 µM,,CCCn1cc(-c2cccc(OC)c2)c(=O)n(CC(=O)Nc2ccc(Br)cc2)c1=O [Compound 154],> 50 µM,> 50 µM,2.4 µM,,3.3 µM,,Active,,
19.2 ± 0.1 µM,3.2 ± 0.4 µM,,O=C(Cn1c(-c2ccc([N+](=O)[O-])cc2)csc1=O)Nc1ccc(Br)cc1 [Compound 169],> 50 µM,> 50 µM,> 50 µM,> 50 µM,,9.1 µM,Active,,potent IL-6 inhibitors
16.6 ± 0.6 µM,7.3 ± 1.2 µM,,CC[C@@](C)(C(=O)Nc1ccc(Br)cc1)n1nc(C)cc(Cc2cccc(OC)c2)c1=O [Compound 103],> 50 µM,> 50 µM,> 50 µM,> 50 µM,7 µM,7 µM,,,
10.6 ± 2.3 µM,5.6 ± 0.3 µM,,CCC[C@H](C(=O)Nc1ccc(Br)cc1)n1nc(C)cc(Cc2cccc(OC)c2)c1=O [Compound 98],> 50 µM,> 50 µM,0.84 µM,0.84 µM,3 µM,3 µM,,,
20.8 ± 0.5 µM,10.7 ± 0.1 µM,< 10 µM,O=C(Cn1c(=O)ccn(-c2ccccc2)c1=O)Nc1ccc(Br)cc1 [Compound 153],> 50 µM,> 50 µM,,8.9 µM,12.5 µM,,Active,,

# Further lines, the molecule ahead of its results:
Structure (SMILES),IC50 [2],"IC50 [3, 7]","IC50 [3, 9]",IC50 at 24 h [1],IC50 at 24 h [4],EC50 ([5]; agonist activity from Table 1),"EC50 [5, 8]",EC50 ([6]; agonist activity from Table 1),"EC50 [6, 8]",Observed class for inhibition of NF-κB activity [2],Inhibition of LPS-induced NF-κB activity (in words) [2],Inhibition of LPS-induced IL-6 production (in words) [3]
CC[C@H](C(=O)Nc1ccc(Br)cc1)n1nc(C)cc(Cc2cccc(OC)c2)c1=O [Compound 94],30.8 ± 6.7 µM,14.3 ± 2 µM,,> 50 µM,> 50 µM,2.3 µM,2.3 µM,2.8 µM,2.8 µM,,,
COc1cccc(Cc2cc(C)nn(C(C)(C)C(=O)Nc3ccc(Br)cc3)c2=O)c1 [Compound 89],29.2 ± 1 µM,27.9 ± 2.2 µM,,> 50 µM,> 50 µM,20.4 µM,20.4 µM,6.3 µM,6.3 µM,Active,,
CCCCc1c(C)nn(CC(=O)Nc2ccc(Br)cc2)c(=O)c1Cc1cccc(OC)c1 [Compound 80],15 ± 1.5 µM,33.5 ± 2.4 µM,,> 50 µM,> 50 µM,,15.7 µM,> 50 µM,> 50 µM,Active,,
COc1cccc(Cc2cc(-c3ccc(Cl)cc3)nn(CC(=O)Nc3ccc(F)cc3)c2=O)c1 [Compound 42],22.5 ± 2.3 µM,35.6 ± 3.1 µM,,> 50 µM,> 50 µM,> 50 µM,> 50 µM,> 50 µM,> 50 µM,,active,inhibitors of IL-6 production
CCc1c(C)nn(CC(=O)Nc2ccc(Br)cc2)c(=O)c1Cc1cccc(OC)c1 [Compound 78],20.7 ± 0.7 µM,17 ± 0.4 µM,,> 50 µM,> 50 µM,,1.9 µM,,3.2 µM,Active,,
COc1cccc(Cc2cc(-c3ccc(C)cc3)nn(CC(=O)Nc3ccc(F)cc3)c2=O)c1 [Compound 46],8.2 ± 1.2 µM,> 50 µM,,> 50 µM,> 50 µM,> 50 µM,> 50 µM,> 50 µM,> 50 µM,,active,inhibitors of IL-6 production
CCCc1c(C)nn(CC(=O)Nc2ccc(Br)cc2)c(=O)c1Nc1cccc(OC)c1 [Compound 83],14.6 ± 1.4 µM,15.2 ± 0.2 µM,,> 50 µM,> 50 µM,> 50 µM,> 50 µM,> 50 µM,> 50 µM,Active,,inhibitors of IL-6 production
CCCc1c(C)nn(CC(=O)Nc2ccc(Br)cc2)c(=O)c1Cc1cccc(OC)c1 [Compound 79],15.7 ± 1.4 µM,13.7 ± 1.4 µM,,> 50 µM,> 50 µM,4.6 µM,,2.2 µM,,Active,,
COc1cccc(Cc2cc(-c3ccc(F)cc3)nn(CC(=O)Nc3ccc(F)cc3)c2=O)c1 [Compound 47],3.4 ± 0.2 µM,18.8 ± 2.9 µM,,> 50 µM,> 50 µM,> 50 µM,> 50 µM,> 50 µM,> 50 µM,,active,inhibitors of IL-6 production
COc1ccc(-c2cc(Cc3cccc(OC)c3)c(=O)n(CC(=O)Nc3ccc(F)cc3)n2)cc1 [Compound 38],19.6 ± 4.3 µM,20.3 ± 1.8 µM,,> 50 µM,> 50 µM,> 50 µM,> 50 µM,> 50 µM,> 50 µM,Active,,inhibitors of IL-6 production
